# Measured values: PubChem BioAssay (NCI)
#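 These data come from cells grown in 96-well plates and exposed to compound for 48 hours at five concentrations. The concentration for 50% growth inhibition is given as GI50. Definition used: TGI = concentration required for complete inhibition of growth.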
# How the values were obtained:
# Assay in all cases: NCI anticancer screen, dose series, 48 h
# [1] = system: 786-0 renal
# [2] = system: A498 renal
# [3] = system: A549 NSCLC
# [4] = system: ACHN renal
# [5] = system: BT-549 breast
# [6] = system: CAKI-1 renal
# [7] = system: CCRF-CEM leukemia
# [8] = system: COLO 205 colon
# [9] = system: DU-145 prostate
# [10] = system: EKVX NSCLC
# [11] = system: HCC-2998 colon
# [12] = system: HCT-116 colon
# [13] = system: HCT-15 colon
# [14] = system: HL-60(TB) leukemia
# [15] = system: HOP-62 NSCLC
# [16] = system: HOP-92 NSCLC
# [17] = system: HS 578T breast
# [18] = system: HT29 colon
# [19] = system: IGROV1 ovarian
# [20] = system: K-562 leukemia
# [21] = system: KM12 colon
# [22] = system: M14 melanoma
# [23] = system: MALME-3M melanoma
# [24] = system: MCF7 breast
# [25] = system: MDA-MB-231 breast
# [26] = system: MDA-MB-435
# [27] = system: MOLT-4 leukemia
# [28] = system: NCI-H226 lung
# [29] = system: NCI-H23 lung
# [30] = system: NCI-H460 lung
# [31] = system: NCI-H522 lung
# [32] = system: NCI/ADR-RES ovarian
# [33] = system: OVCAR-3 ovarian
# [34] = system: OVCAR-5 ovarian
# [35] = system: OVCAR-8 ovarian
# [36] = system: PC-3 prostate
# [37] = system: RXF 393 renal
# [38] = system: SF-268 CNS
# [39] = system: SF-295 CNS
# [40] = system: SF-539 CNS
# [41] = system: SK-MEL-2 melanoma
# [42] = system: SK-MEL-28 melanoma
# [43] = system: SK-MEL-5 melanoma
# [44] = system: SK-OV-3 ovarian
# [45] = system: SN12C renal
# [46] = system: SNB-19 CNS
# [47] = system: SNB-75 CNS
# [48] = system: SW-620 colon
# [49] = system: T-47D breast
# [50] = system: TK-10 renal
# [51] = system: U251 CNS
# [52] = system: UACC-257 melanoma
# [53] = system: UACC-62 melanoma
# [54] = system: UO-31 renal
smiles,measurement,setting,value
COC(=O)c1ccc(NC2=C/C(=N/S(=O)(=O)c3ccc(C(=O)O)cc3)c3ccccc3C2=O)cc1,GI50,[1],10.9 µM
same,TGI,[1],58.4 µM
same,GI50,[2],22.9 µM
same,TGI,[2],42.4 µM
same,GI50,[3],29.8 µM
same,TGI,[3],> 100 µM
same,GI50,[4],1.88 µM
same,TGI,[4],4.19 µM
same,GI50,[5],15 µM
same,TGI,[5],32.6 µM
same,GI50,[6],10 µM
same,TGI,[6],23.1 µM
same,GI50,[7],3.21 µM
same,TGI,[7],> 100 µM
same,GI50,[8],17.7 µM
same,TGI,[8],38.1 µM
same,GI50,[9],11.7 µM
same,TGI,[9],24.7 µM
same,GI50,[10],2.1 µM
same,TGI,[10],5.83 µM
same,GI50,[11],10.4 µM
same,TGI,[11],27 µM
same,GI50,[12],2.81 µM
same,TGI,[12],10.2 µM
same,GI50,[13],11 µM
same,TGI,[13],35.5 µM
same,GI50,[14],2.55 µM
same,TGI,[14],6.52 µM
same,GI50,[15],17.3 µM
same,TGI,[15],38.3 µM
same,GI50,[16],3.71 µM
same,TGI,[16],15.6 µM
same,GI50,[17],3.36 µM
same,TGI,[17],48 µM
same,GI50,[18],21.3 µM
same,TGI,[18],47.4 µM
same,GI50,[19],4.92 µM
same,TGI,[19],20.8 µM
same,GI50,[20],3.19 µM
same,TGI,[20],> 100 µM
same,GI50,[21],10.7 µM
same,TGI,[21],25.3 µM
same,GI50,[22],5.7 µM
same,TGI,[22],23.9 µM
same,GI50,[23],1.89 µM
same,TGI,[23],3.52 µM
same,GI50,[24],1.89 µM
same,TGI,[24],4.4 µM
same,GI50,[25],2.51 µM
same,TGI,[25],8.1 µM
same,GI50,[26],1.95 µM
same,TGI,[26],3.67 µM
same,GI50,[27],1.74 µM
same,TGI,[27],4.47 µM
same,GI50,[28],15.2 µM
same,TGI,[28],34.6 µM
same,GI50,[29],3.18 µM
same,TGI,[29],18.2 µM
same,GI50,[30],20.6 µM
same,TGI,[30],50.8 µM
same,GI50,[31],1.92 µM
same,TGI,[31],4.76 µM
same,GI50,[32],3.06 µM
same,TGI,[32],11.8 µM
same,GI50,[33],2.17 µM
same,TGI,[33],5.94 µM
same,GI50,[34],14 µM
same,TGI,[34],33.4 µM
same,GI50,[35],3.2 µM
same,TGI,[35],46.2 µM
same,GI50,[36],3.4 µM
same,TGI,[36],25.3 µM
same,GI50,[37],8.1 µM
same,TGI,[37],22.4 µM
same,GI50,[38],6.33 µM
same,TGI,[38],37.5 µM
same,GI50,[39],11.7 µM
same,TGI,[39],26.9 µM
same,GI50,[40],1.79 µM
same,TGI,[40],3.38 µM
same,GI50,[41],2.35 µM
same,TGI,[41],6.51 µM
same,GI50,[42],2.46 µM
same,TGI,[42],5.89 µM
same,GI50,[43],3.18 µM
same,TGI,[43],10.1 µM
same,GI50,[44],21 µM
same,TGI,[44],44.5 µM
same,GI50,[45],2.13 µM
same,TGI,[45],5.15 µM
same,GI50,[46],16.9 µM
same,TGI,[46],33.2 µM
same,GI50,[47],2.1 µM
same,TGI,[47],10.1 µM
same,GI50,[48],2.78 µM
same,TGI,[48],> 100 µM
same,GI50,[49],3.19 µM
same,TGI,[49],26.8 µM
same,GI50,[50],25.2 µM
same,TGI,[50],42.8 µM
same,GI50,[51],4.01 µM
same,TGI,[51],28.8 µM
same,GI50,[52],2.06 µM
same,TGI,[52],4.6 µM
same,GI50,[53],2.08 µM
same,TGI,[53],4.55 µM
same,GI50,[54],2.94 µM
same,TGI,[54],15.3 µM
